Experiments:
Assay type in all cases: cell-based, human
1BR3 cells = assay: Micronuclei per 100 cells 24 h after contacting, 1BR3
Method: (§1) In one embodiment, on receipt, the tissue sample (typically the biopsy) is established in the form of an amplifiable cell line without a viral or chemical transformation agent according to an ancillary procedure well known to culture laboratories, as underlined by the publication of Elkind et al. “The radiobiology of cultured mammalian cell”, Gordon and Breach (1967). Once the number of cells is sufficient (typically after 1 to 3 weeks), the first experiments are carried out using the process according to the invention. A cell sample is prepared: The cells are inoculated on glass coverslips in Petri dishes. A portion of these coverslips are contaminated with metals or pesticides or any other DNA-breaking chemical or biochemical agent at different concentrations. A further portion is not contaminated; it represents the spontaneous state. During contamination, the cells remain in the culture incubator at 37° C.
(§2) the cells are fixed in 3% paraformaldehyde and 2% sucrose for 15 minutes at ambient temperature and permeabilized in 20 mM HEPES buffer solution (4-(2-hydroxyethyl)-1-piperazine ethane sulfonic acid) at pH 7.4, 50 mM NaCl, 3 mM MgCl2, 300 mM sucrose, 0.5% Triton X-100 (a non-ionic surfactant having the formula t-Oct-C6H4-(OCH2CH2)×OH where x=9-10, CAS No. 9002-93-1, supplied for example by Sigma Aldrich) for 3 minutes. The glass coverslips are then washed in phosphate buffer saline (known as the acronym PBS) before immunological staining. The incubation took place for 40 min at 37° C. in PBS supplemented with 2% bovine serum albumin (known as the acronym BSA or fraction V, supplied for example by Sigma Aldrich) and was followed by a wash with PBS. Anti-pH2AX primary antibodies are used at a concentration of 1:800. The incubations with anti-mouse FITC or anti-rabbit TRITC secondary antibodies (1:100, supplied by Sigma Aldrich) were performed at 37° C. in 2% BSA for 20 minutes. Glass coverslips were treated with Vectashield™ containing DAPI (4,6-Diamidino-2-phenylindole) to label the nucleus. Staining with DAPI also makes it possible, indirectly, to determine the number of cells in phase G1 (nuclei with homogenous DAPI staining), in phase S (nuclei with numerous pH2AX foci), in phase G2 (nuclei with heterogeneous DAPI staining) and metaphases (visible chromosomes).
Counterstaining with DAPI (a DNA marker known to those skilled in the art) makes it possible to locate the nucleus to situate the cytoplasmic or nuclear location to quantify the micronuclei, which are complementary cell markers to the data on the foci.
The tables hereinafter summarize the results of numerous experiments which were carried out as described in the “Detailed description” section above.
In tables 3 and 4, “pH2AX” corresponds to the mean number of nuclear foci obtained with the marker pH2AX, 24 hours after contacting the cell sample with the chemical agent at the concentration C (NpH2AX(24 h, C)), and where “Micronuclei” corresponds to the mean number of micronuclei observed per 100 cells 24 hours after contacting the cell sample with the chemical agent at the concentration C(NMN(24 h, C)).

1BR3 (control cells) = assay: pH2AX foci immunofluorescence 24 h after contacting, 1BR3 control fibroblasts; settings: 1BR3, 24 hours after contacting (Table 3)
Method: as §1
For the contaminated cells, characteristics are acquired corresponding to the state after an incubation time with the DNA-breaking chemical or biochemical agent. Said characteristics are represented by foci corresponding to the marker pH2AX. The cells on glass coverslips are then fixed, lysed and hybridized. The following procedure, known per se (Bodgi et al, “A single formula to describe radiation-induced protein relocalization: towards a mathematical definition of individual radiosensitivity”, J Theor Biol. 21 p 333:135-45.2013):
as §2
The results are acquired using these coverslips on an immunofluorescence microscope (Olympus model for example). The reading may be direct (typically by counting the foci on at least 50 cells in G0/G1 for each point) or using dedicated image analysis software, or on an automated microscope; preferably the software or automated microscope methods are calibrated with manual determinations.
Commercial 1BR3 and 149 BR control fibroblasts were amplified according to the recommendations of the supplier (SIGMA-ALDRICH) until the number of cells sought was obtained. After obtaining a sufficient number of cells (generally after one to 3 weeks), the first experiments were conducted using the process according to the invention. The cells were inoculated on glass coverslips in Petri dishes.
The acquisition of the results was carried out using these coverslips on an immunofluorescence microscope (Olympus model). The reading was performed directly by counting the foci obtained with the marker pH2AX on at least 50 cells in G0/G1 for each point or using dedicated image analysis software (imageJ). […]

GM02718 cells = assay: pH2AX foci immunofluorescence 24 h after contacting, GM02718 cell line; settings: for pH2AX(24 h) + 2xSEM / pH2AX(24 h): GM002718; for pH2AX(24 h): 24 hours after contacting
Method: as §2
The cell line GM02718 was amplified according to the recommendations of the supplier (Coriell Institute) until the number of cells sought was obtained.
(§3) After obtaining a sufficient number of cells (generally after one to 3 weeks), the first experiments were conducted using the process according to the invention. The GM02718, or 03HLS, line cells were inoculated on glass coverslips in Petri dishes. A portion of these coverslips was then contacted with 5FU at a concentration of 30 μM. By way of verification, a further portion of these coverslips was contacted with 5FU at a given concentration (see table 2, see FIG. 2 (B) for the cell line GM02718, respectively FIG. 2 (C) for the cell line 03HLS).
(§4) After contacting with 5FU at a given concentration, the cells were stored in the culture incubator at 37° C. 24 hours after contacting with 5FU at a given concentration as presented in table 2, the mean number of nuclear foci obtained with the marker pH2AX was acquired. The acquisition of the results was carried out using these coverslips on an immunofluorescence microscope (Olympus model). The reading was performed directly by counting the foci obtained with the marker pH2AX on at least 50 cells in G0/G1 for each point or using dedicated image analysis software (imageJ).
(§5) In order to obtain results of sufficient statistical reliability to serve as a basis for diagnosis, 3 independent series of experiments were performed. The mean and standard errors of the mean (“SEM” or σ) of each of the numbers of foci acquired after 24 hours of contacting the control cells with 5FU at a given concentration was calculated and presented in table 2 and in FIG. 2 (B) for the cell line GM02718, respectively FIG. 2 (C) for the cell line 03HLS.

03HLS cells = assay: pH2AX foci immunofluorescence 24 h after contacting, 03HLS patient skin cell line; settings: for pH2AX(24 h): 24 hours after contacting
Method: as §2
For the line 03 HLS, a skin cell sample from a patient was sampled by biopsy via the “skin punch” method known to those skilled in the art. The cell sample was then placed in DMEM medium+20% sterile fetal calf serum. The cell sample was then transferred without delay to a specialized laboratory, so that the sample remained not more than 38 hours at ambient temperature.
On receipt, the cell sample from the biopsy was established in the form of an amplifiable 03HLS cell line according to a procedure well known to culture laboratories and those skilled in the art: using particularly the trypsin dispersion, the cells are once again diluted in replenished medium and so on until the number of cells sought is obtained.
as §3, §4, §5

MRC9 (control cells) = assay: pH2AX foci immunofluorescence 24 h after contacting, MRC9 control fibroblasts; settings: for pH2AX(24 h) + 2xSEM / pH2AX(24 h): MRC9; for pH2AX(24 h): 24 hours after contacting
Method: as §2
Commercial MRC9 control fibroblasts were amplified according to the recommendations of the supplier (SIGMA-ALDRICH) until the number of cells sought was obtained. After obtaining a sufficient number of cells (generally after one to 3 weeks), the first experiments were conducted using the process according to the invention. The cells were inoculated on glass coverslips in Petri dishes. A portion of these coverslips was then contacted with the medium under test comprising 5FU at a given concentration presented in table 2 hereinafter.
as §4
In order to obtain results of sufficient statistical reliability to serve as a basis for diagnosis, 3 independent series of experiments were performed. The mean and standard errors of the mean (“SEM” or σ) of each of the numbers of foci acquired after 24 hours of contacting the control cells with 5FU at a given concentration was calculated and presented in table 2.

In the case of `CCNc1nc(Cl)nc(NC(C)C)n1` [Atrazine], the Micronuclei (1BR3 cells; 0.01 μM) is reported as 5 per 100 cells, the Micronuclei (1BR3 cells; 0.1 μM) is reported as 6 per 100 cells and the Micronuclei (1BR3 cells; 1 μM) is reported as 13.5 per 100 cells. The Micronuclei (1BR3 cells; 10 μM) was 15 per 100 cells, the Micronuclei (1BR3 cells; 20 μM) was 40 per 100 cells and the pH2AX (1BR3 (control cells); 0.01 μM) was 1 foci. For the same molecule, the pH2AX (1BR3 (control cells); 0.1 μM) was 1.3 foci, the pH2AX (1BR3 (control cells); 0.3 μM) was 1.8 foci and the pH2AX (1BR3 (control cells); 10 μM) was 3.1 foci. The pH2AX (1BR3 (control cells); 30 μM) was 3.5 foci.
With `O=c1[nH]cc(F)c(=O)[nH]1` [5FU] the “pH2AX(24 h) + 2xSEM” value (GM02718 cells; 5FU 1.00 μM) was 3.32 foci, the “pH2AX(24 h)” value (GM02718 cells; 5FU 1.00 μM) was 2.70 foci and the “pH2AX(24 h) + 2xSEM” value (GM02718 cells; 5FU 3.00 μM) was 2.43 foci. For the same molecule, the “pH2AX(24 h)” value (GM02718 cells; 5FU 3.00 μM) was 2.41 foci, the “pH2AX(24 h) + 2xSEM” value (GM02718 cells; 5FU 10.00 μM) was 3.87 foci and the “pH2AX(24 h)” value (GM02718 cells; 5FU 10.00 μM) was 2.96 foci. The “pH2AX(24 h) + 2xSEM” value (GM02718 cells; 5FU 30.00 μM) was 2.38 foci, the “pH2AX(24 h)” value (GM02718 cells; 5FU 30.00 μM) was 2.38 foci and the “number of pH2AX foci” value (GM02718 cells; GM02718, 5FU concentration of 30 μM, 24 h) was “approximately 2.38 foci”. The genotoxic risk group (GM02718 cells; cell line GM02718 at Cref 30 μM) was “group II”, the “pH2AX(24 h) + 2xSEM” value (03HLS cells; 03HLS, 5FU 1.00 μM) was 1.49 foci and the “pH2AX(24 h)” value (03HLS cells; 03HLS, 5FU 1.00 μM) was 1.40 foci. The “pH2AX(24 h) + 2xSEM” value (03HLS cells; 03HLS, 5FU 3.00 μM) was 2.26 foci, the “pH2AX(24 h)” value (03HLS cells; 03HLS, 5FU 3.00 μM) was 1.69 foci and the “pH2AX(24 h) + 2xSEM” value (03HLS cells; 03HLS, 5FU 10.00 μM) was 1.69 foci. The “pH2AX(24 h)” value (03HLS cells; 03HLS, 5FU 10.00 μM) was 1.63 foci, the “pH2AX(24 h) + 2xSEM” value (03HLS cells; 03HLS, 5FU 30.00 μM) was 2.59 foci and the “pH2AX(24 h)” value (03HLS cells; 03HLS, 5FU 30.00 μM) was 2.00 foci. For the same molecule, the “number of pH2AX foci” value (03HLS cells; 03HLS, 5FU concentration of 30 μM, 24 h) was about 2.59 foci, the genotoxic risk group (03HLS cells; cell line 03HLS at Cref 30 μM) was “group II” and the “pH2AX(24 h) + 2xSEM” value (MRC9 (control cells); 5FU 1.00 μM) was 1.97 foci. For the same molecule, the “pH2AX(24 h)” value (MRC9 (control cells); 5FU 1.00 μM) was 1.16 foci, the “pH2AX(24 h) + 2xSEM” value (MRC9 (control cells); 5FU 3.00 μM) was 1.93 foci and the “pH2AX(24 h)” value (MRC9 (control cells); 5FU 3.00 μM) was 1.38 foci. The “pH2AX(24 h) + 2xSEM” value (MRC9 (control cells); 5FU 10.00 μM) was 0.51 foci, the “pH2AX(24 h)” value (MRC9 (control cells); 5FU 10.00 μM) was 0.30 foci and the “pH2AX(24 h) + 2xSEM” value (MRC9 (control cells); 5FU 30.00 μM) was 2.01 foci. For the same molecule, the “pH2AX(24 h)” value (MRC9 (control cells); 5FU 30.00 μM) was 1.18 foci and the “reference concentration Cref defined by NpH2AX(24 h, Cref)+2σ=2” value (MRC9 (control cells); control cell line MRC9) was 30 µM.
In the case of `Oc1c(Cl)c(Cl)c(Cl)c(Cl)c1Cl` [PCP], the Micronuclei (1BR3 cells; 0.3 μM) is reported as 2 per 100 cells, the Micronuclei (1BR3 cells; 3 μM) is reported as 4 per 100 cells and the Micronuclei (1BR3 cells; 10 μM) is reported as 10 per 100 cells. It also gave a Micronuclei (1BR3 cells; 50 μM) of 10 per 100 cells, a Micronuclei (1BR3 cells; 100 μM) of 20 per 100 cells and a pH2AX (1BR3 (control cells); 0.3 μM) of 1.2 foci. The pH2AX (1BR3 (control cells); 10 μM) was 1.5 foci, the pH2AX (1BR3 (control cells); 30 μM) was 1.9 foci and the pH2AX (1BR3 (control cells); 100 μM) was 4.3 foci.
